EC50 and IC50 data for four compounds are collected here from US5476841A, “Inhibitors of herpes viral ribonucleotide reductase” (Bio-Mega/Boehringer Ingelheim Research Inc., priority 1994, dated 1995).

Where a SMILES comes first, the peptide text is derived from it. [ ]: non-standard residue; d: D form. The star is where a group is joined. Asp(3,3-(CH2)4) = N[C@H](C(=O)O)C1(C(=O)O)CCCC1; Dibenzylacetyl = O=C(C(Cc1ccccc1)Cc1ccccc1)*; Leu(γ-Me)ol = CC(C)(C)C[C@@H](CO)N*; tBuAla = CC(C)(C)C[C@H](N)C(=O)O; Tle = CC(C)(C)[C@H](N)C(=O)O; NMeV = CN[C@H](C(=O)O)C(C)C; X1 = CC[C@@H](N*)C(C)(C)C; Pyrrolidide = C1CCN(*)C1; NHCH2tBu = CC(C)(C)CN* Some results are limits rather than exact numbers.

One assay concerns HSV-2. The assay is described as follows: Inhibition of Herpes Simplex virus (HSV-2) replication in cell culture. The assay is classed as cell-based. The settings on record: BHK-21/C13 cells, serum starved, HSV-2 strain HG-52, 0.02 PFU/cell, 29 h incubation; read-out: EC50, concentration effecting a 50% inhibition of HSV-2 virus replication. As for the experimental part: Inhibition of Herpes Simplex virus (HSV-2) Replication in Cell Culture
BHK-21/C13 cells (ATCC CCL 10) are incubated for two days in 150 cm^2 T-flasks (1.5×10^6 cells/flask) with alpha-MEM medium (Gibco Canada Inc., Burlington, Ontario, Canada) supplemented with 8% (v/v) fetal bovine serum (FBS, Gibco Canada Inc.). The cells are trypsinized and then transferred to fresh media in a 24 well plate to give 2.5×10^5 cells in 750 μL of media per well. The cells are incubated at 37° for a period of 6 h to allow them to adhere to the plate. Thereafter, the cells are washed once with 500 μL of alpha-MEM supplemented with 0.5% (v/v) FBS and then incubated with 750 μL of the same media (low serum) for 3 days. After this period of serum starvation, the low serum medium is removed and the cells are incubated in 500 μL of BBMT for 2 to 3 hours. {BBMT medium is described by P. Brazeau et al., Proc. Natl. Acad. Sci. USA, 79, 7909 (1982).} Thereafter, the cells are infected with HSV-2 (multiplicity of infection=0.02 PFU/cell) in 100 μL of BBMT medium. (Note: The HSV-2 used was strain HG-52, see Y. Langelier and G. Buttin, J. Gen. Virol., 57, 21 (1981); the virus was stored at -80°.) Following 1 h of virus adsorption at 37°, the media is removed and the cells are washed with BBMT (3×250 μL). The cells in each well are incubated with or without (control) appropriate concentrations of the test agent dissolved in 200 μL of BBMT medium. After 29 h of incubation at 37°, the infected cells are harvested by first freezing the plate at -80°, followed by thawing. The cells in each well are scraped off the surface of the well with the help of the melting ice fragments. After complete thawing, the cell suspensions are collected and each well is rinsed with 150 μL of BBMT medium. The viral sample (suspension plus washing) is sonicated gently for 4 min at 4°. Cell debris are removed by centrifugation (1000 times gravity for 10 minutes at 4°). The supernatant is collected and stored at -80° until determination of viral titer.
Viral titration was performed by a modification of the colorimetric assay method of M. Langlois et al., Journal of Biological Standardization, 14, 201 (1986), and which is described in detail by R. Deziel and Y. Guindon, supra.
Accordingly, the percentage of virus growth inhibition can be determined for the various concentrations of the test agent, and the concentration of the test agent (i.e. the peptide of formula 1) effecting a 50% inhibition of virus replication, i.e. the EC50, can be calculated.

Assay [1] deals with T1, HSV-1 ribonucleotide reductase (Human herpesvirus 1, UniProt P08543).
T1 construct: obtained from quiescent BHK-21/C13 cells infected with strain F HSV-1 virus; made in house; host or cells: quiescent BHK-21/C13 cells infected with HSV-1 strain F (virus-encoded enzyme, partially purified)
The assay is described as follows: Inhibition of Herpes Simplex virus (HSV-1) ribonucleotide reductase. The assay is classed as biochemical. The settings on record: partially purified enzyme from HSV-1 strain F infected BHK-21/C13 cells; mean of four assays; read-out: IC50, concentration causing a 50% reduction of the HSV-1 ribonucleotide reductase activity. From the text:
Inhibition of Herpes Simplex virus (HSV-1) Ribonucleotide Reductase
HSV-1 ribonucleotide reductase (partially purified) was obtained from quiescent BHK-21/C13 cells infected with strain F HSV-1 virus at 10 plaque forming units/cell as described by E. A. Cohen et al., J. Gen. Virol., 66, 733 (1985).
The assay described by P. Gaudreau et al., J. Biol. Chem., 262, 12413 (1987), is used to evaluate the capability of the compounds of this invention to inhibit HSV-1 ribonucleotide reductase activity. Results are expresed as the concentration of the compound producing 50% of the maximal inhibition (IC50) of enzyme activity. The number of units of the enzyme preparation used in each assay was constant, based on the specific activity of the enzyme preparation. The results are relative to the activity obtained in control experiments without the test compound and represent the mean of four assays that varied less than 10% with each other.

T1 sequence (P08543 whole entry): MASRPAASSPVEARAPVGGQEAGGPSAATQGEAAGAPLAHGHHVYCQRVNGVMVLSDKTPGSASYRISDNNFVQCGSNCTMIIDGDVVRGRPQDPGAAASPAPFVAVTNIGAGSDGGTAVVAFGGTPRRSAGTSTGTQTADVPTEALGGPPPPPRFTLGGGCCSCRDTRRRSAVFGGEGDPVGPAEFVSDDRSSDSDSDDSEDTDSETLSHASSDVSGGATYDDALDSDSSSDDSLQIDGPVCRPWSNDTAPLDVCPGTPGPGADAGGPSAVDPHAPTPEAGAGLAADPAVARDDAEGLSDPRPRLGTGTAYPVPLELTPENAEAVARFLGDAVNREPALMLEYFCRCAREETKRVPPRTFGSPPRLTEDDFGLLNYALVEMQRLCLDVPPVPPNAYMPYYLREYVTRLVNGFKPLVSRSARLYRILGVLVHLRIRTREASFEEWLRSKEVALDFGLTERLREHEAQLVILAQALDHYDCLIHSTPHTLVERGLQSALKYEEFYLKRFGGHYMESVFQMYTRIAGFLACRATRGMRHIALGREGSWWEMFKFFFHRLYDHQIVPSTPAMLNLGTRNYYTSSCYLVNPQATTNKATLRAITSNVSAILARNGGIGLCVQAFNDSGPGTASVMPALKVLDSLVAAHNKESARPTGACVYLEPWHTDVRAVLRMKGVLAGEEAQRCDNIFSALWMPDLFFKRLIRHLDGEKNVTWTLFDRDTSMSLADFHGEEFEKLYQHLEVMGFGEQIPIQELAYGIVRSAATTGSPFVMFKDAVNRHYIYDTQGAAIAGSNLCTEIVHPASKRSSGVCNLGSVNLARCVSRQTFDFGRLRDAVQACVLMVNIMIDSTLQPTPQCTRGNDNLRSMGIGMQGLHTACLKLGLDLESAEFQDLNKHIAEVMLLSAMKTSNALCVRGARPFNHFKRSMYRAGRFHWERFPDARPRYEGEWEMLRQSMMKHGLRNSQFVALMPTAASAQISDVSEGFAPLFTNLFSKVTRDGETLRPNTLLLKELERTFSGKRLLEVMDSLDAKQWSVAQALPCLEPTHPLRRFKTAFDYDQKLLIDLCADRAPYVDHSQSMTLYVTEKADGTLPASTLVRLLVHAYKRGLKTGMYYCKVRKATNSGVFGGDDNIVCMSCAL

For the compound `CC[C@@H](NC(=O)[C@@H](NC(=O)[C@H](CC(=O)N1CCCC1)NC(=O)[C@@H](NC(=O)[C@H](C(C)C)N(C)C(=O)C(Cc1ccccc1)Cc1ccccc1)C(C)(C)C)C1(C(=O)O)CCCC1)C(C)(C)C` [(PhCH2)2 CHC (O)--(N-Me)-Val-Tbg-Asp(pyrrolidino)-Asp(cyPn)-NH--(R)--CH(C2 H5)C(CH3)3] (Dibenzylacetyl-[NMeV][Tle]D(Pyrrolidide)[Asp(3,3-(CH2)4)]-X1), the EC50 in the assay with HSV-2 was less than 2000 nM. The same measure, in the same setting: the figure for `CC(C)[C@@H](C(=O)N[C@H](C(=O)N[C@@H](CC(=O)N1CCCC1)C(=O)N[C@H](C(=O)N[C@@H](CC(C)(C)C)C(=O)O)C1(C(=O)O)CCCC1)C(C)(C)C)N(C)C(=O)C(Cc1ccccc1)Cc1ccccc1` [(PhCH2)2 CHC(O)--(N-Me)-Val-Tbg-Asp (pyrrolidino)-Asp(cyPn)-γMeLeu-OH] (Dibenzylacetyl-[NMeV][Tle]D(Pyrrolidide)[Asp(3,3-(CH2)4)][tBuAla]-OH) is 6000 nM; for `CC(C)[C@@H](C(=O)N[C@H](C(=O)N[C@@H](CC(=O)N1CCCC1)C(=O)N[C@H](C(=O)NCC(C)(C)C)C1(C(=O)O)CCCC1)C(C)(C)C)N(C)C(=O)C(Cc1ccccc1)Cc1ccccc1` [(PhCH2)2 CHC(O)--(N-Me)-Val-Tbg-Asp(pyrrolidino)-Asp(cyPn)-NHCH2 C(CH3)3] (Dibenzylacetyl-[NMeV][Tle]D(Pyrrolidide)[Asp(3,3-(CH2)4)]-NHCH2tBu) it is 1600 nM. As to `CC(C)[C@@H](C(=O)N[C@H](C(=O)N[C@@H](CC(=O)N1CCCC1)C(=O)N[C@H](C(=O)N[C@H](CO)CC(C)(C)C)C1(C(=O)O)CCCC1)C(C)(C)C)N(C)C(=O)C(Cc1ccccc1)Cc1ccccc1` [Example 3, (PhCH2)2 CHC(O)--(N-Me)-Val-Tbg-Asp(pyrrolidino)-Asp(cyPn)-γMeLeucinol] (Dibenzylacetyl-[NMeV][Tle]D(Pyrrolidide)[Asp(3,3-(CH2)4)]-{Leu(γ-Me)ol}), the EC50 in the assay on HSV-2 turned out to be 3000 nM. In addition, the IC50 in assay [1] is 170 nM.
